Measured values taken from patent US10316039B2, “P2X3 and/or P2X2/3 compounds and methods” (Asana Biosciences, LLC, priority 2013, dated 2019).

Tests used:
[1] = target: T1, P2X3 (UniProt P56373); assay: P2X3 FLIPR intracellular calcium assay; assay type: cell-based; conditions: agonist at EC75, species (human or rat) not given
T1 sequence (P56373 1-397): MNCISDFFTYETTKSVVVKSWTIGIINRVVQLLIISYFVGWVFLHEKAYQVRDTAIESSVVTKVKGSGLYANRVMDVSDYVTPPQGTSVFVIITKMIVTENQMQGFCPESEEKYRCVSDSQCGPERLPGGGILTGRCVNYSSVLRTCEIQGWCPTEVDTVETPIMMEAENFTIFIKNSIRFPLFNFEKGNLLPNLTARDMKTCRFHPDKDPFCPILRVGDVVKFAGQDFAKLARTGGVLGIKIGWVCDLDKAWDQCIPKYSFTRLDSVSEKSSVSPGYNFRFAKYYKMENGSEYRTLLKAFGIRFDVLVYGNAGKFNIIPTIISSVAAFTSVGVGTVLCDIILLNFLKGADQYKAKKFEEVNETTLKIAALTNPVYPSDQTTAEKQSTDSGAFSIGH
Description: The FLIPR® assay utilizes cells which express human or rat P2X3 or P2X2/3 receptors. […] The PCR product obtained containing the protein coding sequence of rat P2X2 was cloned into EcoRV-digested and dephosphorylated vector pIRES-puro3 within the multiple cloning site (MCS). See, FIG. 1A.
Rat P2X3 (NCBI Accession No: X91167) was amplified by PCR from rat brain cDNA. The PCR product obtained containing the protein coding sequence of rat P2X3 was cloned into EcoRV-digested and dephosphorylated vector pCDNA-Hygro within the multiple cloning site (MCS) (FIG. 1B). Rat P2X3 cloned into pcDNA-Hygro was then subcloned into pcDNA-5/TO at HindIII (5′) and XhoI (3′) sites within the multiple cloning site (MCS) of the vector (FIG. 1C).
(§1) Transfection was carried out using super-coiled constructs (purified using QIAGEN kit) in antibiotic free, serum free DMEM using Lipofectamine® 2000 (Invitrogen) transfection agent. The DNA constructs rat P2X2 in pIRES-Puro3 and rat P2X3 in pCDNA5/TO were co-transfected into TRex293 cells in order to generate the rP2X2/3 stable line. 50 μg/mL hygromycin (Invitrogen) and 0.5 μg/mL puromycin (Fermentek) were used for selection of stable clones of rP2X2/3. Rat P2X3 in pCDNA5/TO DNA construct was transfected to CHO-TRex cells to generate the rP2×3 stable line and 500 μg/mL hygromycin (Invitrogen) was used as selection antibiotic. Transfected stable colonies were then functionally verified and robust clones suitable for assay were clonally purified through dilutions.
(§2) Cryo-vial containing 6×10^6 cells (human P2X3-HEK/human P2X2/3-TRex293/rat P2X2/3-TRex293/rat P2X3 TRex-CHO) was thawed in a 37° C. water bath. Cells were suspended in 20 mL of respective cell plating media (See annexure for composition) in a 50 mL centrifuge tube. The cell viability was checked with the help of Trypan Blue dye. Upon washing, cells were plated in a black 384-well clear bottomed, sterile poly-D-lysine coated plate such that, each well contained 10,000 cells (15,000/well for hP2X3) in 30 μL cell plating media. The plate was incubated in a 5% CO2 incubator at 37° C. for 24 h.
(§3) The next day, prior to the assay, the cell plating media was removed from each well by decanting and gentle tapping. Thirty μL of FLIPR Calcium 4 dye solution was added to each well. The plate was incubated at 37° C. for 45 min (60 min for hP2X3). The plate was next equilibrated at room temperature for 15 minutes before placing it in a 384 well FLIPR for the assay.
Dilutions were mixed with assay buffer just before performing the assay.
(§4) Compounds were added to the respective wells of the assay-ready cell plate with the help of the FLIPR and fluorescence readings were captured for 5 min to observe any possible agonistic property of the compounds. The plate was then incubated at room temperature for 15 min. The cells were stimulated with respective agonist EC75 concentration and the fluorescence readings were captured for another 5 min by FLIPR. The difference in fluorescence readings in presence of the compounds were compared with that of the control wells (wells having no compound) to calculate the inhibitory potency of the compounds. The IC50 values of the compounds were determined using the Graph pad Prism software.
(vi) Dye Solution Composition • 1×FLIPR Calcium 4 dye in assay buffer (Molecular devices Cat# R8141) • 1.8 mM Probenecid (Sigma Cat# P8761) • pH adjusted to 7.4

[2] = target: T2, P2X2/3 (Homo sapiens, UniProt P56373+Q9UBL9); assay: P2X2/3 FLIPR intracellular calcium assay; assay type: cell-based; conditions: agonist at EC75, species (human or rat) not given
T2 sequence (Q9UBL9 1-471): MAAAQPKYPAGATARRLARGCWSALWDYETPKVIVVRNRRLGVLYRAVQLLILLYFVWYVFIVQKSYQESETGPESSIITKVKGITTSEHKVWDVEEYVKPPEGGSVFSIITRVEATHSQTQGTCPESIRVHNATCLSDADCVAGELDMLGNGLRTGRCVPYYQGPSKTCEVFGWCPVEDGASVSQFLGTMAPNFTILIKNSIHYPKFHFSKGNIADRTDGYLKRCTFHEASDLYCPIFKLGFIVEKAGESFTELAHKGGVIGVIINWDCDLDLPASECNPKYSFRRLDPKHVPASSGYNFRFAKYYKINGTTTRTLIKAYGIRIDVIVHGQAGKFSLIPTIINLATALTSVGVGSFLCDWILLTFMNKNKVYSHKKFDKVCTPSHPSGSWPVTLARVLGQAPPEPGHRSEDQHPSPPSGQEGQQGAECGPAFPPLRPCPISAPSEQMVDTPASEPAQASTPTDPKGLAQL
T2 sequence (P56373 1-397): T1 sequence (P56373 1-397)
Description: The FLIPR® assay utilizes cells which express human or rat P2X3 or P2X2/3 receptors. Recombinant cells expressing hP2X3 (Cat#6188) and hP2X2/3 (Cat#6179) were procured from Chantest Corp. Rat P2X2 (NCBI Accession No: U14414) was amplified by PCR from PC12 cDNA (a rat adrenal medulla cell line). The PCR product obtained containing the protein coding sequence of rat P2X2 was cloned into EcoRV-digested and dephosphorylated vector pIRES-puro3 within the multiple cloning site (MCS). See, FIG. 1A.
as §1, §2, §3
Compounds were dissolved in DMSO and serially diluted following 11 point half log (3.16 fold) dilution with a starting concentration of 2 mM. Dilutions were mixed with assay buffer just before performing the assay.
as §4
(ii) Cell Plating Media for hP2X3-HEK and hP2X2/3-TRex293 Cells • DMEM/F12 (1:1) HAM media (Invitrogen; Cat#11039) • 1×NEAA (Invitrogen; Cat#11140) • 25 mM HEPES (Invitrogen; Cat#15630) • 1 mM sodium pyruvate (Invitrogen; Cat#11360) • 10% tetracycline negative FBS (PAA; Cat# A15-209) • 1 μg/mL doxycycline (Clontech; Cat#63131) [for hP2X2/3-TRex293 cells only]
(iii) Cell Plating Media for rP2X2/3-TRex293 Cells • DMEM media (Invitrogen; Cat#11965) • 25 mM HEPES (Invitrogen; Cat#15630) • 10% tetracycline negative FBS (PAA; Cat# A15-209) • 1 μg/mL Doxycycline (Clontech; Cat#63131)
(v) Assay Buffer Composition • HBSS (Invitrogen Cat#14025) • 20 mM HEPES (Invitrogen Cat#15630) • 0.01% F127 (Sigma Cat# P2443) • 1.8 mM CaCl2 (Sigma Cat# C5080) • pH adjusted to 7.4 […]

Row | IC50 [1] | IC50 [2] | SMILES
1 | 1 to 100 nM | 1 to 100 nM | Cc1ccc(CNC(=O)c2cc(N3CCC(C)(C(N)=O)CC3)c3ncc(-c4ccc(C)s4)n3c2)cn1 [Example 148]
2 | 1 to 100 nM | 100 to 1000 nM | Cc1ccc(-c2cnc3c(-c4cnn(CC5CC5)c4)cc(C(=O)N[C@@H](C)c4nnc[nH]4)cn23)s1 [Example 104]
3 | 1 to 100 nM | 100 to 1000 nM | Cc1ccc(-c2cnc3c(N4CCC(C)CC4)cc(C(=O)NCc4ccn(C)c(=O)c4)cn23)s1 [Example 128]
4 | 1 to 100 nM | 1 to 100 nM | CC[C@H](NC(=O)c1cc(-c2c(C)noc2C)c2ncc(-c3ccc(C)s3)n2c1)c1nnc[nH]1 [Example 108]
5 | 1 to 100 nM | 100 to 1000 nM | Cc1ccc(-c2cnc3c(-c4cnn(CCF)c4)cc(C(=O)N[C@@H](C)c4nnc[nH]4)cn23)s1 [Example 105]
6 | > 10000 nM | 1 to 100 nM | Cc1ccc(CNC(=O)c2cc(-c3c(C)noc3C)c3ncc(-c4ccc(C)s4)n3c2)cn1 [Example 106]
7 | 1 to 100 nM | 1 to 100 nM | Cc1ccc(CNC(=O)c2cc(-n3nncc3C)c3ncc(-c4ccc(C)s4)n3c2)cn1 [Example 28]
8 | 1 to 100 nM | 100 to 1000 nM | Cc1ncc(CNC(=O)c2cc(-n3nncc3C(C)(F)F)c3ncc(-c4ncc(C)s4)n3c2)cn1 [Example 71]
9 | 100 to 1000 nM | 1000 to 10000 nM | CCc1nnc(-c2cc(C(=O)N[C@@H](C)c3nnc[nH]3)cn3c(-c4ccc(C)s4)cnc23)o1 [Example 1, (S)—N-(1-(4H-1,2,4-Triazol-3-yl)ethyl)-8-(5-ethyl-1,3,4-oxadiazol-2-yl)-3-(5-methylthiophen-2-yl)imidazo[1,2-a]pyridine-6-carboxamide]
10 | 1 to 100 nM | 1 to 100 nM | C[C@H](NC(=O)c1cc(-n2nncc2C(F)(F)F)c2ncc(-c3ccc(Cl)s3)n2c1)c1nnc[nH]1 [Example 79]
11 | > 10000 nM | 100 to 1000 nM | Cc1ccc(CNC(=O)c2cc(-n3nnnc3C3CC3)c3ncc(-c4ccc(C)s4)n3c2)cn1 [Example 16, 8-(5-Cyclopropyl-1H-tetrazol-1-yl)-N-((6-methylpyridin-3-yl)methyl)-3-(5-methylthiophen-2-yl)imidazo[1,2-a]pyridine-6-carboxamide]
12 | 1 to 100 nM | 1 to 100 nM | Cc1ccc(CNC(=O)c2cc(-n3nncc3C3CC3)c3ncc(-c4ccc(C)s4)n3c2)cn1 [Example 25]
13 | 1 to 100 nM | 1 to 100 nM | CCc1cnnn1-c1cc(C(=O)NCc2cnc(C)cn2)cn2c(-c3ccc(C)s3)cnc12 [Example 24]
14 | 1 to 100 nM | 1 to 100 nM | CCCc1cnnn1-c1cc(C(=O)N[C@@H](C)c2nnc[nH]2)cn2c(-c3ccc(C)s3)cnc12 [Example 63]
15 | 1 to 100 nM | 100 to 1000 nM | Cc1ccc(CNC(=O)c2cc(-n3nnnc3C)c3ncc(-c4ccc(C)s4)n3c2)cn1 [Example 157]
16 | 1 to 100 nM | 100 to 1000 nM | COC1(C)CCN(c2cc(C(=O)N[C@@H](C)c3nnc[nH]3)cn3c(-c4ccc(C)s4)cnc23)C1 (stereo partly drawn) [Example 142]
17 | 1 to 100 nM | > 10000 nM | Cc1ccc(-c2cnc3c(Nc4ccc(F)cc4)cc(C(=O)N[C@@H](C)c4nnc[nH]4)cn23)s1 [Example 95]
18 | 100 to 1000 nM | 1000 to 10000 nM | C[C@H](NC(=O)c1cc(-n2nnnc2C2CC2)c2ncc(-c3ccc(Cl)s3)n2c1)c1nnc[nH]1 [Example 175]
19 | 1 to 100 nM | 1 to 100 nM | Cc1ccc(CNC(=O)c2cc(-n3nnnc3C(F)F)c3ncc(-c4ccc(C)s4)n3c2)cn1 [Example 18, 8-(5-(Difluoromethyl)-1H-tetrazol-1-yl)-N-((6-methylpyridin-3-yl)methyl)-3-(5-methylthiophen-2-yl)imidazo[1,2-a]pyridine-6-carboxamide]
20 | 1 to 100 nM | 1 to 100 nM | CC[C@H](NC(=O)c1cc(-n2nnnc2C(F)F)c2ncc(-c3ccc(Cl)s3)n2c1)c1nnc[nH]1 [Example 174]
21 | 1 to 100 nM | 100 to 1000 nM | CCCc1cnnn1-c1cc(C(=O)NCc2cnc(C)nc2)cn2c(-c3ncc(C)s3)cnc12 [Example 64]
22 | 1000 to 10000 nM | 100 to 1000 nM | Cc1ccc(-c2cnc3c(N4CCC(F)(F)CC4)cc(C(=O)N[C@H](c4nnc[nH]4)C(C)C)cn23)s1 [Example 145]
23 | 1 to 100 nM | 1 to 100 nM | C[C@H](NC(=O)c1cc(-n2nnnc2C(C)(F)F)c2ncc(-c3ccc(Cl)s3)n2c1)c1nnc[nH]1 [Example 184]
24 | > 10000 nM | 100 to 1000 nM | Cc1ccc(CNC(=O)c2cc(-n3c(C)cnc3C)c3ncc(-c4ccc(C)s4)n3c2)cn1 [Example 2, 8-(2,5-Dimethyl-1H-imidazol-1-yl)-N-((6-methylpyridin-3-yl)methyl)-3-(5-methylthiophen-2-yl)imidazo[1,2-a]pyridine-6-carboxamide]
25 | 1 to 100 nM | 1 to 100 nM | Cc1ccc(-c2cnc3c(-n4nncc4C(C)(C)C)cc(C(=O)N[C@@H](C)c4nnc[nH]4)cn23)s1 [Example 46]
26 | 1 to 100 nM | 1 to 100 nM | Cc1ccc(-c2cnc3c(-n4nncc4C4CC4)cc(C(=O)N[C@@H](C)c4nnc[nH]4)cn23)s1 [Example 34]
27 | 1 to 100 nM | 100 to 1000 nM | CC[C@H](NC(=O)c1cc(-n2nncc2C(C)C)c2ncc(-c3ccc(Cl)s3)n2c1)c1nnc[nH]1 [Example 69]
